Measured values published in ChEMBL document CHEMBL4308834, “Novel Allosteric Activators for Ferroptosis Regulator Glutathione Peroxidase 4” (J Med Chem, 2018).
pKd: −log10 of the molar value. Calls of active or inactive are those of the source. The rule behind the calls is not given here.

Tests used:
Homo sapiens [1] = species on record: Homo sapiens; assay: (§1) Activation of recombinant His-tagged human cytosolic GPX4 U46C mutant expressed in Escherichia coli M15 assessed as increase in oxidized glutathione-mediated oxidation of NADPH to NADP+ at 200 uM using tert-butyl hydroperoxide as substrate preincubated for 5 mins followed by substrate addition measured for 6 mins by glutathione reductase enzyme coupled fluorescence assay relative to control
Homo sapiens [2] = species on record: Homo sapiens; assay: as §1, with “NADP+” for “NADP+ at 200 uM”, “assay” for “assay relative to control”
Homo sapiens [3] = species on record: Homo sapiens; assay: as §1, with “0.4 to 250” for “200”
[4] = biological target: Phospholipid hydroperoxide glutathione peroxidase GPX4 (Mus musculus) (UniProt O70325); assay: Activation of GPX4 in MEF assessed as increase in […] protection against CHOOH-induced cell death at 200 uM; assay type: cell-based
Sequence of Phospholipid hydroperoxide glutathione peroxidase GPX4 (Mus musculus) (O70325 whole entry): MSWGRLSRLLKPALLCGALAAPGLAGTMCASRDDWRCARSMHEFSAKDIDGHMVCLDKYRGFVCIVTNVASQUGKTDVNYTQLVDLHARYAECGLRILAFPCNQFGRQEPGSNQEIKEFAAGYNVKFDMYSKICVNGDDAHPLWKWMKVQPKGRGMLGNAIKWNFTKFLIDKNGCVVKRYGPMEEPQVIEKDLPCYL

[5] = Binding affinity to recombinant His-tagged human cytosolic GPX4 U46C mutant expressed in Escherichia coli M15 by SPR analysis
[6] = Antioxidant activity assessed as DPPH radical scavenging activity at 500 uM; assay type: functional
[7] = Binding affinity to recombinant human GPX4 D21A/D23A double mutant expressed in Escherichia coli M15 by SPR analysis
Homo sapiens [8] = species on record: Homo sapiens; assay: (§2) Activation of recombinant human GPX4 D21A/D23A/U46C mutant expressed in Escherichia coli M15 assessed as increase in oxidized glutathione-mediated oxidation of NADPH to NADP+ using tert-butyl hydroperoxide as substrate preincubated for 5 mins followed by substrate addition measured for 6 mins by glutathione reductase enzyme coupled fluorescence assay relative to GPX4 U46C mutant control
[9] = Zinc chelating activity in presence of ZnSO4 after 10 mins by crystal violet staining based assay
Homo sapiens [10] = species on record: Homo sapiens; assay: as §2, with “D21A/U46C double” for “D21A/D23A/U46C”
[11] = Iron chelating activity assessed as compound-Fe2+ complex formation after 10 mins by Prussian blue assay
[12] = biological target: Phospholipid hydroperoxide glutathione peroxidase GPX4 (Mus musculus) (UniProt O70325); assay: Activation of GPX4 in MEF assessed as increase in oxidized glutathione-mediated oxidation of NADPH to NADP+ using tert-butyl hydroperoxide as substrate preincubated for 5 mins followed by substrate addition measured for 6 mins by glutathione reductase enzyme coupled fluorescence assay; assay type: cell-based
Homo sapiens [13] = species on record: Homo sapiens; assay: as §2, with “D23A/U46C double” for “D21A/D23A/U46C”

Row | Compound | Activity (Homo sapiens [1]) | EC150 (Homo sapiens [2]) | Emax (Homo sapiens [3]) | further results
1 | CNCCNS(=O)(=O)c1ccc(NC(=S)NC2CCCC2)cc1 | 167% | 121 µM | 209% | –
2 | O=S(=O)(NCCO)c1ccc(NC(=S)NC2CCCC2)cc1 | < 115% | – | – | –
3 | O=S(=O)(NCCO)c1ccc(NC(=S)NCc2ccc(Cl)cc2)cc1 | < 115% | – | – | –
4 | CCNS(=O)(=O)c1ccc(NC(=S)NC2CCCC2)cc1 | < 115% | – | – | –
5 | NS(=O)(=O)c1ccc(NC(=S)NCCO)cc1 | 167% | 147 µM | 225% | Activity (Homo sapiens [2]): Dose-dependent effect
6 | NS(=O)(=O)c1ccc(NC(S)=NCc2ccccc2)cc1 | 129% | 255 µM | 300% | Activity (Homo sapiens [2]): Dose-dependent effect
7 | NCCNS(=O)(=O)c1ccc(NC(=S)NCc2ccc(Cl)cc2)cc1 | < 115% | – | – | –
8 | CC(C)(C)NC(=S)Nc1ccc(S(=O)(=O)NCCN)cc1 | 318% | 29 µM | 437% | –
9 | CCNC(=S)Nc1ccc(S(=O)(=O)NCCN)cc1 | < 115% | – | – | –
10 | CN1CCN(C(S)=Nc2ccc(S(N)(=O)=O)cc2)CC1 | 115% | 285 µM | 200% | Activity (Homo sapiens [2]): Dose-dependent effect

Now from value to compound, other results behind:

Row | Activity (Homo sapiens [1]) | EC150 (Homo sapiens [2]) | Emax (Homo sapiens [3]) | Compound | further results
11 | < 115% | – | – | NCCNS(=O)(=O)c1ccc(NC(=S)NC2CCCCCC2)cc1 | –
12 | 121% | 301 µM | 214% | NCCCNS(=O)(=O)c1ccc(NC(=S)NC2CCCC2)cc1 | –
13 | < 115% | – | – | NCCNS(=O)(=O)c1ccc(NC(=S)NC2CCCCC2)cc1 | –
14 | < 115% | – | – | NCCCCNS(=O)(=O)c1ccc(NC(=S)NC2CCCC2)cc1 | –
15 | 219% | 20 µM | 279% | NCCNS(=O)(=O)c1ccc(NC(=S)NC2CCCC2)cc1 | Activity [4]: Active; pKd [5]: 4.72; Activity [6]: inactive; pKd [7]: 3.43; EC150 (Homo sapiens [8]): 382 µM; Activity [9]: inactive; EC150 (Homo sapiens [10]): 367 µM; Activity [11]: inactive; Activity [12]: Dose-dependent effect; EC150 [12]: 61 µM; EC150 (Homo sapiens [13]): 235 µM
